Measurements reported in PubChem BioAssay (NCI).
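In this assay, cells in 96-well plates receive the compound at five concentrations for 48 hours. Endpoints are linearly interpolated between the surrounding concentrations. GI50 marks 50% less growth. TGI denotes the concentration required for complete inhibition of growth.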

Assays:
Experiment in all cases: DTP human tumour cell line panel, 48 h
786-0 renal = system: 786-0 renal
A549 NSCLC = system: A549 NSCLC
BT-549 breast = system: BT-549 breast
CAKI-1 renal = system: CAKI-1 renal
CCRF-CEM leukemia = system: CCRF-CEM leukemia
DU-145 prostate = system: DU-145 prostate
EKVX NSCLC = system: EKVX NSCLC
HCC-2998 colon = system: HCC-2998 colon
HCT-116 colon = system: HCT-116 colon
HCT-15 colon = system: HCT-15 colon
HL-60(TB) leukemia = system: HL-60(TB) leukemia
HOP-62 NSCLC = system: HOP-62 NSCLC
HOP-92 NSCLC = system: HOP-92 NSCLC
HT29 colon = system: HT29 colon
IGROV1 ovarian = system: IGROV1 ovarian
K-562 leukemia = system: K-562 leukemia
LOX IMVI melanoma = system: LOX IMVI melanoma
M14 melanoma = system: M14 melanoma
MCF7 breast = system: MCF7 breast
MDA-MB-231 breast = system: MDA-MB-231 breast
MOLT-4 leukemia = system: MOLT-4 leukemia
NCI-H226 lung = system: NCI-H226 lung
NCI-H23 lung = system: NCI-H23 lung
NCI-H460 lung = system: NCI-H460 lung
NCI-H522 lung = system: NCI-H522 lung
NCI/ADR-RES ovarian = system: NCI/ADR-RES ovarian
OVCAR-3 ovarian = system: OVCAR-3 ovarian
OVCAR-4 ovarian = system: OVCAR-4 ovarian
OVCAR-5 ovarian = system: OVCAR-5 ovarian
OVCAR-8 ovarian = system: OVCAR-8 ovarian
PC-3 prostate = system: PC-3 prostate
RPMI-8226 leukemia = system: RPMI-8226 leukemia
RXF 393 renal = system: RXF 393 renal
SF-268 CNS = system: SF-268 CNS
SF-295 CNS = system: SF-295 CNS
SK-MEL-2 melanoma = system: SK-MEL-2 melanoma
SK-MEL-5 melanoma = system: SK-MEL-5 melanoma
SK-OV-3 ovarian = system: SK-OV-3 ovarian
SN12C renal = system: SN12C renal
SNB-19 CNS = system: SNB-19 CNS
SR leukemia = system: SR leukemia
SW-620 colon = system: SW-620 colon
T-47D breast = system: T-47D breast
TK-10 renal = system: TK-10 renal
U251 CNS = system: U251 CNS
UACC-257 melanoma = system: UACC-257 melanoma
UACC-62 melanoma = system: UACC-62 melanoma
HS 578T breast = system: HS 578T breast
A498 renal = system: A498 renal
ACHN renal = system: ACHN renal
COLO 205 colon = system: COLO 205 colon
KM12 colon = system: KM12 colon
MALME-3M melanoma = system: MALME-3M melanoma
MDA-MB-435 = system: MDA-MB-435
SF-539 CNS = system: SF-539 CNS
SK-MEL-28 melanoma = system: SK-MEL-28 melanoma
SNB-75 CNS = system: SNB-75 CNS
UO-31 renal = system: UO-31 renal

## COc1cc2c(cc1O)CCN[C@]21CS[C@@H]2c3c(OC(C)=O)c(C)c4c(c3[C@H](COC1=O)N1[C@@H]2[C@H]2c3c(cc(C)c(OC)c3O)C[C@@H]([C@@H]1O)N2C)OCO4
786-0 renal
  TGI: 948 nM
A549 NSCLC
  GI50: 3.19 nM
  TGI: 2830 nM
BT-549 breast
  TGI: 6.12 nM
CAKI-1 renal
  TGI: 1360 nM
CCRF-CEM leukemia
  TGI: 3110 nM
DU-145 prostate
  TGI: 1000 nM
EKVX NSCLC
  GI50: 4.67 nM
  TGI: 45.9 nM
HCC-2998 colon
  GI50: 3.52 nM
  TGI: 6.52 nM
HCT-116 colon
  TGI: 2940 nM
HCT-15 colon
  GI50: 3.79 nM
  TGI: 361 nM
HL-60(TB) leukemia
  TGI: 11.4 nM
HOP-62 NSCLC
  TGI: 252 nM
HOP-92 NSCLC
  GI50: 2.73 nM
  TGI: 51.8 nM
HT29 colon
  TGI: 2520 nM
IGROV1 ovarian
  GI50: 2.57 nM
  TGI: 1960 nM
K-562 leukemia
  TGI: 7980 nM
LOX IMVI melanoma
  TGI: 262 nM
M14 melanoma
  TGI: 3.83 nM
MCF7 breast
  TGI: 979 nM
MDA-MB-231 breast
  TGI: 19.9 nM
MOLT-4 leukemia
  TGI: 8760 nM
NCI-H226 lung
  GI50: 3.13 nM
  TGI: 5.82 nM
NCI-H23 lung
  TGI: 5.7 nM
NCI-H460 lung
  TGI: 808 nM
NCI-H522 lung
  TGI: 7.46 nM
NCI/ADR-RES ovarian
  GI50: 5.91 nM
  TGI: 2610 nM
OVCAR-3 ovarian
  TGI: 5.7 nM
OVCAR-4 ovarian
  TGI: 71.8 nM
OVCAR-5 ovarian
  TGI: 1190 nM
OVCAR-8 ovarian
  TGI: 4830 nM
PC-3 prostate
  GI50: 2.79 nM
  TGI: 119 nM
RPMI-8226 leukemia
  TGI: 5.29 nM
RXF 393 renal
  TGI: 4.01 nM
SF-268 CNS
  TGI: 48.6 nM
SF-295 CNS
  TGI: 1010 nM
SK-MEL-2 melanoma
  GI50: 3.1 nM
  TGI: 5.11 nM
SK-MEL-5 melanoma
  TGI: 4.33 nM
SK-OV-3 ovarian
  GI50: 3.09 nM
  TGI: 3990 nM
SN12C renal
  TGI: 3900 nM
SNB-19 CNS
  TGI: 1390 nM
SR leukemia
  TGI: 10500 nM
SW-620 colon
  TGI: 130 nM
T-47D breast
  TGI: 3020 nM
TK-10 renal
  GI50: 3.31 nM
  TGI: 3540 nM
U251 CNS
  TGI: 1020 nM
UACC-257 melanoma
  TGI: 5.57 nM
UACC-62 melanoma
  TGI: 4.03 nM

## COc1cccc(/C=C/C(=O)c2c(C)nc3ccccc3c2/C=C/c2ccccc2)c1OC
HS 578T breast
  GI50: 3590 nM
  TGI: > 100000 nM
SK-OV-3 ovarian
  GI50: 54100 nM
  TGI: > 100000 nM

## CC(=O)O/N=C/c1c2ccccc2cc2ccccc12
A498 renal
  TGI: > 100000 nM
A549 NSCLC
  TGI: > 100000 nM
ACHN renal
  TGI: 68500 nM
CAKI-1 renal
  TGI: > 100000 nM
CCRF-CEM leukemia
  TGI: > 100000 nM
COLO 205 colon
  TGI: > 100000 nM
DU-145 prostate
  TGI: > 100000 nM
EKVX NSCLC
  TGI: > 100000 nM
HCT-116 colon
  TGI: > 100000 nM
HCT-15 colon
  TGI: > 100000 nM
HL-60(TB) leukemia
  TGI: > 100000 nM
HOP-62 NSCLC
  TGI: > 100000 nM
HOP-92 NSCLC
  TGI: > 100000 nM
HS 578T breast
  TGI: > 100000 nM
HT29 colon
  TGI: > 100000 nM
K-562 leukemia
  TGI: > 100000 nM
KM12 colon
  TGI: > 100000 nM
LOX IMVI melanoma
  TGI: > 100000 nM
M14 melanoma
  TGI: > 100000 nM
MALME-3M melanoma
  TGI: > 100000 nM
MCF7 breast
  TGI: > 100000 nM
MDA-MB-231 breast
  TGI: > 100000 nM
MDA-MB-435
  TGI: > 100000 nM
MOLT-4 leukemia
  TGI: > 100000 nM
NCI-H226 lung
  TGI: > 100000 nM
NCI-H23 lung
  TGI: > 100000 nM
NCI-H460 lung
  TGI: > 100000 nM
NCI/ADR-RES ovarian
  TGI: > 100000 nM
OVCAR-3 ovarian
  TGI: > 100000 nM
OVCAR-5 ovarian
  TGI: > 100000 nM
OVCAR-8 ovarian
  TGI: 50300 nM
PC-3 prostate
  TGI: > 100000 nM
RPMI-8226 leukemia
  TGI: > 100000 nM
RXF 393 renal
  TGI: 86200 nM
SF-268 CNS
  TGI: > 100000 nM
SF-295 CNS
  TGI: > 100000 nM
SF-539 CNS
  TGI: > 100000 nM
SK-MEL-28 melanoma
  TGI: > 100000 nM
SK-MEL-5 melanoma
  TGI: > 100000 nM
SK-OV-3 ovarian
  TGI: 69600 nM
SN12C renal
  TGI: > 100000 nM
SNB-19 CNS
  TGI: > 100000 nM
SNB-75 CNS
  TGI: 51500 nM
SR leukemia
  TGI: > 100000 nM
SW-620 colon
  TGI: > 100000 nM
T-47D breast
  TGI: > 100000 nM
TK-10 renal
  TGI: > 100000 nM
U251 CNS
  TGI: > 100000 nM
UACC-257 melanoma
  TGI: > 100000 nM
UACC-62 melanoma
  TGI: > 100000 nM
UO-31 renal
  TGI: > 100000 nM
